The target in one data set is ERβ (Homo sapiens, UniProt Q92731). Particulars: HeLa cells, estradiol (10^−9), FIG. 14B. An excerpt:
(§1) HeLa cells were transfected with either an ERα expression vector (see FIG. 14A) or an ERβ expression vector (see FIG. 14B) together with an estrogen responsive ERE-TK-luceriferase reporter construct.

Data set [1] can be described thus: Uterotrophic assay in immature rats. Particulars: 21 day old immature rats, oral. The protocol:
FIG. 5. […] The data shown represent the mean value (±SEM).
Twenty-one day old female Sprague-Dawley rats (30-35 gms) were obtained from Harlan or Taconic Laboratories. Animals were sorted randomly into treatment groups of five, and average weights were recorded for each treatment group. Weights were recorded on each treatment day. […] On day of dosing, drug was diluted in 0.5% methyl cellulose, viscosity of 2% at 25° C.:400 centipoises (Sigma, St. Louis, Mo.)). Oral dosing by gavage was based on a total volume of 10 ml/kg body weight. […] Subcutaneous dosing was based on a total of 2 ml/kg body weight. […] On day 4, animals were sacrificed by C02 asphyxiation, body weights were obtained and uteri were removed, blotted and weighed. Data were expressed as uterine weight/body weight.
In this assay, uterine wet weight was used as a measure of ER-agonist activity in this tissue (FIG. 5).

The next data set relates to MCF-7/LCC2. In words: LCC2 study, MCF-7/LCC2 tumors in nude mice. It counts as in vivo, mouse. Particulars: after 8 weeks, 1.0 mg every three days, FIG. 11. How it is done: This experiment was conducted to determine the ability of GW5638 to retard the growth of this cell line in nude mice relative to control or tamoxifen treated tumors.
40 OVX mice were prepared to accept cells and grouped as follows:
Control animals received nothing and groups 3 and 4 received 0.1 ml injections in corn oil every three days. Tumors were measured Q3 days with calipers, and the area calculated as follows: Area=½×w/2×π.

The target of a further data set is T1, human ER (Homo sapiens, UniProt P03372).
T1 construct: expressed in transfected cells; host or cells: MCF-7
It counts as cell-based. Conditions: MCF-7 cells, in the presence of 17-β-estradiol, 48 h, FIG. 12.

In a further data set the test system is ER-VP16. In words: ER-VP16 reporter of nuclear localization and DNA binding status of ER. It counts as cell-based. From the text: This was addressed using a modified ER (ER-VP16) to report on the nuclear localization and the DNA binding status of ER within a cell following ligand binding. This modified protein behaves exactly like ER in all respects except it activates transcription upon interaction with an estrogen response element (ERE) independent of the nature of the bound ligand (McDonnell et al, Mol. Endocrinol. 9:659-669 (1995)).

The next data set has as its system MCF-7 cells. In words: [3H]-thymidine incorporation, E2 stimulated MCF-7 cell proliferation. The class given is cell-based, human. Conditions: FIG. 19. How it is done: Experimental Design: Plate between 25,000 and 50,000 cells per well onto 24-well plates. Cells are plated in phenol red-free media. After attachment, cells are stimulated with either antiestrogen alone or estrogen and antiestrogen. Induction time ranges from 12-48 hours, depending on experiment.
Add 4λ (4 μCi) thymidine, [methyl-^3H]-to each well.
Incubate at 37° C. for 2-4 hours.
Aspirate media and wash twice with ice cold PBS.
Wash once with ice cold 10% TCA (trichloroacetic acid).
Add 2 mL 10% TCA to each well.
Incubate at 4° C. for 1-2 hours.
Transfer each well to scintillation vial containing 2 mL scintillation fluid.

The target of a further data set is T2, ERα (Homo sapiens, UniProt P03372).
T2 construct: expressed in transfected cells; host or cells: HeLa
It counts as cell-based. Particulars: HeLa cells, estradiol (10^−9), FIG. 14A.
Text: as §1

The subject of a further data set is ER-TAF1. In words: C3 promoter-luciferase cotransfection assay in HepG2 cells, ER-TAF1 (AF-2 disrupted). It counts as cell-based, human. Conditions: for agonist activity on ER-TAF1: ER-TAF1, compound alone, FIG. 1B. An excerpt: (§2) FIGS. 1A and 1B. […] The human C3 promoter (−1807 to +58) fused to the firefly luciferase reporter gene was transfected along with an expression plasmid containing (FIG. 1A) the wild-type human estrogen receptor (ERwt), or (FIG. 1B) a mutated ER in which the AF-2 function had been disrupted (ER-TAFl) into HepG2 cells and tested for transcriptional activation in the presence of increasing concentrations of ER-modulator as indicated. Transfections were normalized for efficiency and cell number by cotransfecting an expression plasmid containing β-galactosidase. The normalized response was obtained by dividing light units by the activity of β-galactosidase as measured in an enzymatic assay. Triplicate transfections were performed. The data shown are representative of multiple experiments performed under similar conditions.
(§3) FIGS. 2A-2C. […] FIG. 2A. […] FIG. 2B. […] FIG. 2C. […] Transfections were normalized for efficiency and cell number by cotransfecting an expression plasmid containing β-galactosidase. The normalized response was obtained by dividing light units by the activity of β-galactosidase as measured in an enzymatic assay. Representative assays are shown in which triplicate transfections were performed. Error bars represent the standard error of the mean (SEM).
(§4) HepG2 cells were maintained in Modified Eagles Medium (MEM) (Life Technologies, Grand Island, N.Y.) plus 10% Fetal Calf Serum (FCS) (Life Technologies). Cells were plated in 24 well plates (coated with gelatin) 24 hours prior to transfection. DNA was introduced into the cells using Lipofectin (Life Technologies). Briefly, triplicate transfections were performed using 3 μg of total DNA. For standard transfections, 500 ng of pCMV-β-Gal (normalization vector), 1500 ng reporter (variable) and 1000 ng receptor (pRST7-hER (Dana et al, Mol. Endocrinol. 8:1193-1207 (1994)) were used for each triplicate. Incubation of the cells with Lipofectin proceeded for 3 hrs, at which time media was removed, cells were washed with PBS and then induced with the appropriate hormone diluted in phenol red-free media containing 10% charcoal stripped CS (Cyclone Inc.). Incubation with hormone continued for 48 hrs, after which cells were lysed and assayed for luciferase and β-galactosidase activity as previously described (Norris et al, JBC 270:22777-22782 (1995)).
(§5) A series of in vitro screens have been developed that permit the classification of ER-modulators into four mechanistically distinct groups (Tzukerman et al, Mol. Endocrinol. 8:21-30 (1994)). […] Using these assays, it has been possible to derive “fingerprints” of known ER-modulators (McDonnell et al, Mol. Endocrinol. 9:659-669 (1995)).
(§6) Subsequently, the transfected cells were assayed for luceriferase and β-galactosidase activity. Each data point in this experiment represents the average of triplicate determinations of the transcriptional activity under given experimental conditions.

Data set [2] deals with T3, wild-type human estrogen receptor (ERwt) (Homo sapiens, UniProt P03372).
T3 construct: expressed in transfected cells; host or cells: HepG2
T3 sequence (P03372 1-595): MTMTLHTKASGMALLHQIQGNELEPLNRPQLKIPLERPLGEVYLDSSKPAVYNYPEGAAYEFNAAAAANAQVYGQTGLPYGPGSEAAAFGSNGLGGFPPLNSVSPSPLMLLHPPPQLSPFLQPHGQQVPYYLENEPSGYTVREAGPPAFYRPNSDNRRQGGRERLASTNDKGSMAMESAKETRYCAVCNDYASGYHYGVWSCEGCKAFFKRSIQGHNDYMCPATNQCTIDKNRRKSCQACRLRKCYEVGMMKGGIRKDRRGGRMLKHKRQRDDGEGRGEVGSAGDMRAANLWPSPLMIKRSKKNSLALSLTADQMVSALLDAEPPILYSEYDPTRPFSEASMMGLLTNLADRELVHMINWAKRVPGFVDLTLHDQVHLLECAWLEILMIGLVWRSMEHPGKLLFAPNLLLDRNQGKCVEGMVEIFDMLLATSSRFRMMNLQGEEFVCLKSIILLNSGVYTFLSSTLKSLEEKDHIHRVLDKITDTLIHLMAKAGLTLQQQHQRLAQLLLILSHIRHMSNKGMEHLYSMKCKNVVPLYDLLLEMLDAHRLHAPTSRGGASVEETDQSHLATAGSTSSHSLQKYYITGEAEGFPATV
In words: C3 promoter-luciferase cotransfection assay in HepG2 cells, ERwt. It counts as cell-based.
Text: as §2, §3, §4, §5, §6

A short description of data set [3]: Bone mineral density in ovariectomized rats (DEXA, pQCT). Conditions: 90-day old OVX rats, oral, 28 days, FIG. 3A. The class given is in vivo, rat. How it is done:
FIGS. 3A and 3B. […] FIG. 3A. […] FIG. 3B.
Animal preparation. […] At sacrifice, animals were euthanized with C02, body weights were recorded and the uteri were removed and weighed. Uterus, vagina and mammary tissue were fixed in 10% neutral buffered formalin. Samples for histologic processing were taken from the mid-point of each uterine horn. Tissue samples were embedded in paraffin, stained with haematoxylin and eosin and evaluated microscopically. Lumbar vertebrae and both left and right tibiae were excised. Total blood cholesterol was measured (Roche Biomedical Laboratories).

The structures appear in SMILES notation.

Chain of ERβ (Q92731 whole entry): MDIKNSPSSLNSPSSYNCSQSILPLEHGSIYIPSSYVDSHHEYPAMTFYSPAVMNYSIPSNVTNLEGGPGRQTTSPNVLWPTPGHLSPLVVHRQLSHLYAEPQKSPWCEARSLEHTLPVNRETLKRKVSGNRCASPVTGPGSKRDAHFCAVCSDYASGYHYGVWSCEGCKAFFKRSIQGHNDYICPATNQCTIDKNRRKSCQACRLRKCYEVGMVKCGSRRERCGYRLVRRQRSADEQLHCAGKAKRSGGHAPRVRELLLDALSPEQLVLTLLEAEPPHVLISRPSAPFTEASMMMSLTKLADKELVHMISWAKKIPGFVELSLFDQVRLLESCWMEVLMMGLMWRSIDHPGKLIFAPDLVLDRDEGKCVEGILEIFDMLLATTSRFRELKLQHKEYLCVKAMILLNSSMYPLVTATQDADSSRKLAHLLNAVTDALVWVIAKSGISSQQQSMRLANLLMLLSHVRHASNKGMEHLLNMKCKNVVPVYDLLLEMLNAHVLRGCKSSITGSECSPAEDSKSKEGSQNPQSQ

As for `O=C(c1ccc(OCCN2CCCCC2)cc1)c1c(-c2ccc(O)cc2)sc2cc(O)ccc12` [raloxifene, reference compound], the “inhibition of estradiol activated transcription, ERβ” value against ERβ is listed as “neither raloxifene nor idoxifene manifest potent antagonist activity”.

With `CC/C(=C(\c1ccccc1)c1ccc(OCCN(C)C)cc1)c1ccccc1` [tamoxifen, reference compound], in data set [1], the “lowest dose with uterotrophic activity” value worked out at 0.1 µmol/kg/day. Further, the tumor growth entry in the data set on MCF-7/LCC2 is on record as “equally inhibit growth of this tumor”.

As to `CC/C(=C(\c1ccc(O)cc1)c1ccc(/C=C/C(=O)O)cc1)c1ccccc1` [GW7604], the “antiestrogen activity on C3-Luc transcription” value at human ER is “Functions as an Antiestrogen”. In the data set on ER-VP16, the “interaction of ER with target DNA” value is reported as “facilitate efficient interactions of ER with target DNA”. The “E2 stimulated MCF-7 cell proliferation” value in the data set on MCF-7 cells is “Inhibits E2 Stimulated MCF-7 Cell Proliferation”. Also, the “inhibition of estradiol activated transcription, ERα” value at ERα was “potent pan-antagonist of both forms of the human estrogen receptor”. Further, on ERβ, the “inhibition of estradiol activated transcription, ERβ” value was “potent pan-antagonist of both forms of the human estrogen receptor”. Further, the “inhibition of the partial agonist activity of raloxifene on ER-TAF1” value with ER-TAF1 (ER-TAF1) was “inhibited”. In the data set with ER-TAF1 (ER-TAF1, FIG. 2B), the “inhibition of estradiol- and tamoxifen-induced ER-TAF1 transcriptional activity” value is “capable of inhibiting”. Besides, in the data set with ER-TAF1, the “agonist activity on ER-TAF1” value was “functionally inactive”. In the data set on ER-TAF1 (any ER-mutant examined, FIG. 13), the “agonist activity on ER mutants” value was “does not exhibit agonist activity”. In addition, the “reversal of the inverse agonist activity of ICI182,780” value in data set [2] (C3 promoter, co-addition with ICI182,780, FIG. 2C) is on record as “completely reversed”. For the same molecule, the “inhibition of the agonist activity manifested by tamoxifen or estradiol” value in data set [2] (ERwt, 10^−8M 17-β-estradiol or tamoxifen, FIG. 2A) was “inhibited”. Also, the “agonist / inverse agonist activity on the C3 promoter” value in [2] (ERwt, compound alone, FIG. 1A/2A) is “do not demonstrate any agonist or antagonist activity”.

Regarding `C[C@]12CC[C@@H]3c4ccc(O)cc4CC[C@H]3[C@@H]1CC[C@@H]2O` [estradiol, 17β-estradiol, reference compound], the “bone mineral density, lumbar spine” value in [3] is recorded as “BMD was maintained”.

Turning to `C[C@]12CC[C@@H]3c4ccc(O)cc4C[C@@H](CCCCCCCCC[S+]([O-])CCCC(F)(F)C(F)(F)F)[C@H]3[C@@H]1CC[C@@H]2O` (stereo partly drawn) [ICI182,780, reference compound], the “interaction of ER with target DNA” value in the data set with ER-VP16 was “facilitate efficient interactions of ER with target DNA”. Moreover, in the data set with ER-TAF1, the “agonist activity on ER-TAF1” value was “functionally inactive”.

For the origin of these results see patent US7307102B2, “Method of preventing or treating estrogen-dependent diseases and disorders” (Duke University, priority 1997, dated 2007).
